Data: publication PMC3631439 (ACS chemical biology, 2013)
Entries after “also recorded” stand apart in the source; their conditions may differ. Where two headings read alike, the source gives them in different places.

What was measured:
[1] = tested on: PKC signaling in LNCaP cells; test: PKC and downstream signaling in LNCaP cells; assay type: cell-based, human; details: 60 min
PKCβII = PKCβII (Homo sapiens, UniProt P05771); test: Down regulation of PKCβII in U937 cells; assay type: cell-based
[2] = tested on: LNCaP human prostate cancer cells; test: Proliferation of LNCaP cells; details: for inhibition of proliferation of LNCaP cells: 36 h; for block of inhibition of proliferation by PMA: PMA 30 nM co-administered
U937 leukemia cells [3] = assay type: cell-based, human; details: 60 hours; for suppression of growth inhibition induced by PMA: co-administered with PMA
[4] = tested on: PKC isoforms and PKD1 in LNCaP cells; test: Subcellular fractionation of LNCaP cells; assay type: cell-based, human; details: 60 min
mouse GFP-PKCδ = mouse GFP-PKCδ (Mus musculus, UniProt P28867); test: Translocation of mouse GFP-PKCδ in LNCaP cells; assay type: cell-based; details: 1000 nM PMA, 1000 nM bryostatin 1, 3000 nM bryostatin 7
[5] = tested on: TNFα secretion in LNCaP cells; test: TNFα secretion by LNCaP cells; details: for inhibition of secretion of TNFα induced by PMA: 30 nM PMA; for secretion of TNFα: 24 h
PKCδ = PKCδ (Homo sapiens, UniProt Q05655); test: Down regulation of PKCδ in U937 cells; assay type: cell-based
[6] = tested on: phorbol ester responsive genes in LNCaP cells; test: Gene induction in LNCaP cells; assay type: cell-based, human; details: 6 hours, 1000 nM
U937 leukemia cells [7] = assay type: cell-based, human; details: 60 hours; for cell attachment: U937 cells; for inhibition of attachment induced by PMA: co-administered with PMA
Mouse PKC α = Mouse PKC α (Mus musculus, UniProt P20444); test: biochemical; assay type: binding
PKC = details: cited from earlier work
human GFP-PKCδ = human GFP-PKCδ (Homo sapiens, UniProt Q05655); test: Translocation of human GFP-PKCδ in LNCaP cells; assay type: cell-based; details: 1000 nM PMA, 1000 nM bryostatin 1, 3000 nM bryostatin 7
human YFP-PKCε = target: T1, human YFP-PKCε (Homo sapiens, UniProt Q02156); test: Translocation of human YFP-PKCε in LNCaP cells; assay type: cell-based
T1 sequence (Q02156 1-737): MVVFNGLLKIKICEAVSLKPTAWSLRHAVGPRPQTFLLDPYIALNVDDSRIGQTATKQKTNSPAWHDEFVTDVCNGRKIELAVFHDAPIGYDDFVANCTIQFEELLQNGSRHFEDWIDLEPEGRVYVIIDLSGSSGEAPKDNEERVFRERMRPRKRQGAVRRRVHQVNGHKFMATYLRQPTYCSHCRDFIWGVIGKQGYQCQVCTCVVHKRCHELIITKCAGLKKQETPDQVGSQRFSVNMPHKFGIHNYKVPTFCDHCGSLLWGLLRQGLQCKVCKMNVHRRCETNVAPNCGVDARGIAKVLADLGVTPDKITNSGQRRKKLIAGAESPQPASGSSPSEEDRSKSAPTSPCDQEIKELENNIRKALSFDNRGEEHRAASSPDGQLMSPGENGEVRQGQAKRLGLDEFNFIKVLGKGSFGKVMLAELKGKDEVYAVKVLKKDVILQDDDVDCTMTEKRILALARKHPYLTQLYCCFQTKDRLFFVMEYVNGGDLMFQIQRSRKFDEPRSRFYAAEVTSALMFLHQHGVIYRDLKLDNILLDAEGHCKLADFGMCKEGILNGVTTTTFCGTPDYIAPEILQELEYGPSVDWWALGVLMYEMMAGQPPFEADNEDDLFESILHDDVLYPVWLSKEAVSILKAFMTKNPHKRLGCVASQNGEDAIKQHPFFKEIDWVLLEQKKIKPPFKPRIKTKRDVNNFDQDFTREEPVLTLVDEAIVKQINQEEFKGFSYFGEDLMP

human GFP-PKCα = human GFP-PKCα (Homo sapiens, UniProt P17252); test: Translocation of human GFP-PKCα in CHO cells; assay type: cell-based
U937 cells = assay type: cell-based, human; details: araC 1 μM, 24 h; bryostatin 1 100 nM, bryostatin 7 1000 nM
human platelets = details: cited from earlier work
[8] = tested on: human PKC isoforms α, βII, δ, and ε
[9] = tested on: TNFα secretion in U937 cells; test: TNF-alpha secretion by U937 cells; assay type: cell-based, human
tumor promotion = details: cited from earlier work
PKCε = target: T2, PKCε (Homo sapiens, UniProt Q02156); test: Down regulation of PKCε in U937 cells; assay type: cell-based; details: data not shown
T2 sequence (Q02156 1-737): T1 sequence (Q02156 1-737)

[10] = read-out: EC50 for down regulation of PKCβII, 24 hours

PKCβII, sequence (P05771 1-673 isoform P05771-2): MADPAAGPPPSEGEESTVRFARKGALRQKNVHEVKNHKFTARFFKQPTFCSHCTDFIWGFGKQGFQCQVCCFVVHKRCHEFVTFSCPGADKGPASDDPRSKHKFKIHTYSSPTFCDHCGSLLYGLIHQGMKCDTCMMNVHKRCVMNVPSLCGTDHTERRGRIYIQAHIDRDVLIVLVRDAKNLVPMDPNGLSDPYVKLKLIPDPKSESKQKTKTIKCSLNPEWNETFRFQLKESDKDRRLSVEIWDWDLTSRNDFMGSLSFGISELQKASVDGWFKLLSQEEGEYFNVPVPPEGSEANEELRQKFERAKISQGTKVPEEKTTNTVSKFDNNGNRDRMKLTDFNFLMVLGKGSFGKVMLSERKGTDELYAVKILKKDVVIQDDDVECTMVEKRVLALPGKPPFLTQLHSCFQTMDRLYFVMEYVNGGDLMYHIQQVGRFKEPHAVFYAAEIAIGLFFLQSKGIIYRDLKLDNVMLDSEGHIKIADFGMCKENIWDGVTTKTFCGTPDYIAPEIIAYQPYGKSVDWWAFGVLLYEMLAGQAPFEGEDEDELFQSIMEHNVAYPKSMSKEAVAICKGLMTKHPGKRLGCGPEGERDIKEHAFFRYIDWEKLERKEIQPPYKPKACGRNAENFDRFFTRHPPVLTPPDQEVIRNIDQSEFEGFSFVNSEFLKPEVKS
PKCδ, sequence (Q05655 whole entry): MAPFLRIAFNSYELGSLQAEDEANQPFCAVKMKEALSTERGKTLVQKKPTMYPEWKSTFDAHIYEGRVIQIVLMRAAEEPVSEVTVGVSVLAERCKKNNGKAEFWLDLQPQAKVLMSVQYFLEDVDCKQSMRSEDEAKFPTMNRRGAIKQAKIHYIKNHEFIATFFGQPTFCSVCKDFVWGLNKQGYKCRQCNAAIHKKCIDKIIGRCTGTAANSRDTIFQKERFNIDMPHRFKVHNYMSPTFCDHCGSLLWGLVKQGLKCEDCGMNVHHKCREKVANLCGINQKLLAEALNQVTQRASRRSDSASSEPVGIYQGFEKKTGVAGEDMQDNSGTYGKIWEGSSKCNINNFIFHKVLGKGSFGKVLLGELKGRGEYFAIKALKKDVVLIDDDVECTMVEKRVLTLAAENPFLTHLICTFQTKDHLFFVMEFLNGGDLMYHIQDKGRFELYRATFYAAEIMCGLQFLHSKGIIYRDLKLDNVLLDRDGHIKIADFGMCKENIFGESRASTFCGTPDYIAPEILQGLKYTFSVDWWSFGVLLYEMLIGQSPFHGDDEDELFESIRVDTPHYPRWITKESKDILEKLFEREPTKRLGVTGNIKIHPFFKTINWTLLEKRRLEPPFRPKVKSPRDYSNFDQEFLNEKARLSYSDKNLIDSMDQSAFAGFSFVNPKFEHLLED
mouse GFP-PKCδ, sequence (P28867 whole entry): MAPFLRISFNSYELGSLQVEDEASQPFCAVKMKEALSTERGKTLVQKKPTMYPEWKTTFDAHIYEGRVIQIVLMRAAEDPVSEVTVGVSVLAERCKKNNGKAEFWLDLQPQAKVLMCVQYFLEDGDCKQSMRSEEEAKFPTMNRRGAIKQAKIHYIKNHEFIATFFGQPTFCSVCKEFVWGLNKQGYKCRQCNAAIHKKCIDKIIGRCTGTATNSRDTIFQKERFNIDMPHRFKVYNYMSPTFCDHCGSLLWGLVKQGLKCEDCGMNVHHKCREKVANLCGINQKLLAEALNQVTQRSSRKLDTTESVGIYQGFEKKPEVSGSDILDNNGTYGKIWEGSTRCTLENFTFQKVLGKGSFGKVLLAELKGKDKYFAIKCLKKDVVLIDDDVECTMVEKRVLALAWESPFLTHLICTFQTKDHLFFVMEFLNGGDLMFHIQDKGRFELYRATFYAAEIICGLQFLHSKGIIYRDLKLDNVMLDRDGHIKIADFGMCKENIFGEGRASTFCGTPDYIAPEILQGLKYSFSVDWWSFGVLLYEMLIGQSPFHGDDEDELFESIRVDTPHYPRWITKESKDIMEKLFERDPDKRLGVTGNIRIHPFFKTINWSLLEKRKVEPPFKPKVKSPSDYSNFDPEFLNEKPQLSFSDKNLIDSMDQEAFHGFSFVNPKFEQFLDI
human GFP-PKCδ, sequence (Q05655 whole entry): as the sequence (Q05655 whole entry) above

Compound: COC(=O)/C=C1/C[C@H]2C[C@]3(O)O[C@H](C[C@@H](O)CC(=O)O[C@@H]([C@@H](C)O)C[C@@H]4C/C(=C\C(=O)OC)[C@H](OC(C)=O)[C@@](O)(O4)C(C)(C)/C=C/[C@@H](C1)O2)C[C@H](OC(C)=O)C3(C)C [Bryostatin 7, bryostatin 7]
- PKCδ phosphorylation on Y311 [1]: inability to induce efficient PKCδ phosphorylation on Y311
- induction of PKCδ phosphorylation at S299 [1]: closely similar
- induction of cFos or EGR1 [1]: reduced induction of cFos or EGR1 at 60 min compared to bryostatin 1
- phosphorylation of PKD1 [1]: somewhat less phosphorylation of PKD1 than did bryostatin 1
- potency for PKCβII down regulation, fold weaker than bryostatin 1 (PKCβII; 24 hours): 3 fold
- EC50 (PKCβII; [10]): 0.97 ± 0.08 nM
- inhibition of proliferation of LNCaP cells [2]: fails to inhibit proliferation
- block of inhibition of proliferation by PMA [2]: able to block the inhibition of proliferation by PMA
- inhibition of U937 cell proliferation (U937 leukemia cells [3]): very limited, biphasic inhibition; also recorded: inhibited proliferation slightly more than did bryostatin 1
- suppression of growth inhibition induced by PMA (U937 leukemia cells [3]): able to suppress the growth inhibition induced by PMA
- PKCδ in the nuclear enriched fraction [4]: resembled bryostatin 1 for this response
- pPKD1 in the nuclear fraction [4]: behaved similarly to bryostatin 1
- translocation pattern of mouse GFP-PKCδ (mouse GFP-PKCδ): only to the nuclear membrane and internal membranes
- inhibition of secretion of TNFα induced by PMA [5]: inhibits the secretion of TNFα induced by PMA
- secretion of TNFα [5]: minimal secretion of TNFα
- down regulation of PKCδ (PKCδ; 24 hours): resembled bryostatin 1
- potency for PKCδ down regulation, fold weaker than bryostatin 1 (PKCδ; 24 hours): approximately 3 fold
- EC50 (PKCδ; read-out: EC50 for down regulation of PKCδ, 24 hours): 0.22 ± 0.03 nM
- changes in levels of mRNA expression [6]: generally similar for bryostatin 1 and bryostatin 7 and less than they were for PMA
- cell attachment (U937 leukemia cells [7]): much reduced level of cell attachment compared to that induced by PMA; also recorded: induced slightly more attachment than did bryostatin 1
- inhibition of attachment induced by PMA (U937 leukemia cells [7]): able to inhibit the attachment induced by PMA
- Ki (Mouse PKC α): 0.26 ± 0.06 nM
- binding affinity towards PKC among bryostatins (PKC): highest binding affinity towards PKC
- translocation pattern of human GFP-PKCδ (human GFP-PKCδ): only caused translocation of the human GFP-PKCδ to nuclear and internal membranes
- translocation pattern of human YFP-PKCε (human YFP-PKCε): no plasma membrane translocation
- translocation pattern of human GFP-PKCα (human GFP-PKCα): pattern of translocation similar to that of bryostatin 1
- synergy with araC for loss of mitochondrial membrane potential (U937 cells): able to synergize with araC
- aggregation of human platelets (human platelets): mimics the activity of the phorbol ester PMA in inducing aggregation of human platelets
- selectivity among PKC isoforms [8]: little selectivity among these PKC isoforms

Compound: CCCCCCCCCCCCCC(=O)O[C@@H]1[C@@H](C)[C@@]2(O)[C@@H](C=C(CO)C[C@]3(O)C(=O)C(C)=C[C@@H]23)[C@@H]2C(C)(C)[C@]12OC(C)=O [PMA]
- TNFα secretion [9]: higher level of secretion
- level of down regulation of PKCβII (PKCβII; 24 hours): less down regulation
- inhibition of proliferation of LNCaP cells [2]: inhibits cellular proliferation
- tumor promoting activity (tumor promotion): tumor promoter
- PKCδ in the nuclear enriched fraction [4]: increase in PKCδ in the nuclear enriched fraction
- pPKD1 in the nuclear fraction [4]: substantial accumulation in the nuclear fraction
- translocation pattern of mouse GFP-PKCδ (mouse GFP-PKCδ): initial translocation to the plasma membrane
- down regulation of PKCε (PKCε): little down regulation
- down regulation of PKCδ (PKCδ; 24 hours): little down regulation
- translocation pattern of human YFP-PKCε (human YFP-PKCε; LNCaP cells, 1000 nM): rapid clearing of the cytoplasm with translocation of PKCε to the plasma membrane
- translocation pattern of human GFP-PKCα (human GFP-PKCα; CHO cells, 1000 nM): slow but clear plasma membrane translocation

Compound: CCC/C=C/C=C/C(=O)O[C@H]1/C(=C/C(=O)OC)C[C@H]2C[C@H]([C@@H](C)O)OC(=O)C[C@H](O)C[C@@H]3C[C@H](OC(C)=O)C(C)(C)[C@](O)(C[C@@H]4C/C(=C/C(=O)OC)C[C@H](/C=C/C(C)(C)[C@]1(O)O2)O4)O3 [Bryostatin 1, bryostatin 1]
- PKCδ phosphorylation on Y311 [1]: inability to induce efficient PKCδ phosphorylation on Y311
- induction of PKCδ phosphorylation at S299 [1]: closely similar
- DC50 (PKCβII; [10]): 0.31 ± 0.005 nM
- inhibition of proliferation of LNCaP cells [2]: little inhibitory effect
- block of inhibition of proliferation by PMA [2]: prevents the inhibition by PMA
- inhibition of U937 cell proliferation (U937 leukemia cells [3]): very limited, biphasic inhibition
- suppression of growth inhibition induced by PMA (U937 leukemia cells [3]): able to suppress the growth inhibition induced by PMA
- translocation pattern of mouse GFP-PKCδ (mouse GFP-PKCδ): only to the nuclear membrane and internal membranes
- inhibition of secretion of TNFα induced by PMA [5]: inhibits the secretion of TNFα induced by PMA
- secretion of TNFα [5]: minimal secretion of TNFα
- down regulation of PKCε (PKCε): little down regulation
- down regulation of PKCδ (PKCδ; 24 hours): down regulation with a biphasic dose response curve
- changes in levels of mRNA expression [6]: generally similar for bryostatin 1 and bryostatin 7 and less than they were for PMA
- cell attachment (U937 leukemia cells [7]): much reduced level of cell attachment compared to that induced by PMA
- inhibition of attachment induced by PMA (U937 leukemia cells [7]): able to inhibit the attachment induced by PMA
- Ki (Mouse PKC α): 0.48 ± 0.03 nM
- translocation pattern of human GFP-PKCδ (human GFP-PKCδ): some initial plasma membrane translocation
- translocation pattern of human YFP-PKCε (human YFP-PKCε; LNCaP cells, 1000 nM): resembled that with PMA, albeit less extensive
- translocation pattern of human GFP-PKCα (human GFP-PKCα; CHO cells, 1000 nM): some translocation of the human PKCα to the plasma membrane but with most forming a thick ring around the nucleus
- synergy with araC for loss of mitochondrial membrane potential (U937 cells): able to synergize with araC

Compound: CC(C)[C@H]1C(=O)N[C@H](CO)Cc2c[nH]c3cccc(c23)N1C [indolactam V]
- tumor promoting activity (tumor promotion): tumor promoters

Compound: CC(=O)O[C@@]12C[C@@H](C)[C@@]3(O)[C@@H](C=C(CO)C[C@]4(O)C(=O)C(C)=C[C@@H]34)[C@@H]1C2(C)C [prostratin]
- tumor promoting activity (tumor promotion): inhibits tumor promotion
